How the values were obtained:
Format in all cases: biochemical
KDM2B (FBXL10) = target: T1, KDM2B (FBXL10) (Homo sapiens, UniProt Q8NHM5); experiment: Histone lysine demethylase AlphaLISA assay, KDM2B; details: read-out: KDM2B HDME Inhibition IC50
T1 sequence (Q8NHM5 1-650): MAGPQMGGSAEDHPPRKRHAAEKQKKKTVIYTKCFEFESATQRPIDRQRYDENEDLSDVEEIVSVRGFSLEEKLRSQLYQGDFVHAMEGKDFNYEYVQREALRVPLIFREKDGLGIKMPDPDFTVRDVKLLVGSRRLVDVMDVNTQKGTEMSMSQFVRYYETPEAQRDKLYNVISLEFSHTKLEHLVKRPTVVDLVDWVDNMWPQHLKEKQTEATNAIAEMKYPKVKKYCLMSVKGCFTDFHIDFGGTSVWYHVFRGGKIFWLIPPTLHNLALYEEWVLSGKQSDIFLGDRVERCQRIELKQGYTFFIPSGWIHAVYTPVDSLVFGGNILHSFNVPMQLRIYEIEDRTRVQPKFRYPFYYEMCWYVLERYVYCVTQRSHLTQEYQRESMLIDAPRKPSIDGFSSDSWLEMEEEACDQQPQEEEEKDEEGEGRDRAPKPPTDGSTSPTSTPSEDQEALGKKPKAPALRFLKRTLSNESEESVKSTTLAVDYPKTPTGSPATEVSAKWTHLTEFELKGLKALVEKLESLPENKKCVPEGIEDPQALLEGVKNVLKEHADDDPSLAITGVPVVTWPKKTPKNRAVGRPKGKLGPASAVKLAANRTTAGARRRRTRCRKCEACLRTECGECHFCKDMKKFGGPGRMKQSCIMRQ
Outline: (§1)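 Steps: enzyme equilibrated 10 min in buffer; compounds in 3% DMSO solution added, 10 min; substrate mix added (peptide, 25 μM L-Asc, 10 μM α-KG), room temperature; acceptor beads, then streptavidin donor beads, dark incubations; plate read.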

KDM4A (JMJD2A) = target: T2, KDM4A (JMJD2A) (Homo sapiens, UniProt O75164); experiment: Histone lysine demethylase AlphaLISA assay, KDM4A; details: read-out: KDM4A HDME Inhibition IC50
T2 construct: 1-350; purchased BPS Bioscience, US; host or cells: E. coli
T2 sequence (O75164 1-350): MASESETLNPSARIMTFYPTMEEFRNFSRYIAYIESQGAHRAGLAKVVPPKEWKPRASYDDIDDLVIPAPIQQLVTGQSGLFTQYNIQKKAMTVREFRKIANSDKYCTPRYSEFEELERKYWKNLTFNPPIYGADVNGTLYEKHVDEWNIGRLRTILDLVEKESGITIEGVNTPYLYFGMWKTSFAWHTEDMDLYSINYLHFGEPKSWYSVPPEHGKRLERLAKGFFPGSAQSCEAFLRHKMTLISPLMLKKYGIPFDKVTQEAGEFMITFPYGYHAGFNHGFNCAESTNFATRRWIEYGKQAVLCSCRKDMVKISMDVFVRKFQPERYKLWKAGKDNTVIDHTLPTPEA
Method: (§2) Assays are performed analogously to the protocol described by PerkinElmer (Roy et al. PerkinElmer Technical Note: AlphaLISA #12, April 2011)
(§3) Enzymes are dissolved in enzyme buffer and incubated for 10 min before being added to 3% DMSO solutions of compounds in enzyme buffer. Incubated for another 10 minutes, before substrate solution is added and the reaction mixture is incubated at room temperature. 10 μL acceptor beads, suspended in Epigenetic Buffer (Perkin Elmer AL008) from stock, are added and the suspension is incubated in the dark at room temperature, before a suspension of streptavidin donor beads (Perkin Elmer 6760002) in Epigenetic Buffer is added. After incubation at room temperature in the dark the plates are read.
BK9M3: Biotin-ARTKQTAR(KMe3)STGGKAPRKQ-NH2 (Caslo, Denmark) […]
(§4) Substrate Solution: Substrate, 25 μM L-Asc, and 10 μM α-KG in Buffer A.

KDM5B (PLU-1) = target: T3, KDM5B (PLU-1) (Homo sapiens, UniProt Q9UGL1); experiment: Histone lysine demethylase AlphaLISA assay, KDM5B; details: read-out: KDM5B HDME Inhibition IC50
T3 sequence (Q9UGL1 1-809): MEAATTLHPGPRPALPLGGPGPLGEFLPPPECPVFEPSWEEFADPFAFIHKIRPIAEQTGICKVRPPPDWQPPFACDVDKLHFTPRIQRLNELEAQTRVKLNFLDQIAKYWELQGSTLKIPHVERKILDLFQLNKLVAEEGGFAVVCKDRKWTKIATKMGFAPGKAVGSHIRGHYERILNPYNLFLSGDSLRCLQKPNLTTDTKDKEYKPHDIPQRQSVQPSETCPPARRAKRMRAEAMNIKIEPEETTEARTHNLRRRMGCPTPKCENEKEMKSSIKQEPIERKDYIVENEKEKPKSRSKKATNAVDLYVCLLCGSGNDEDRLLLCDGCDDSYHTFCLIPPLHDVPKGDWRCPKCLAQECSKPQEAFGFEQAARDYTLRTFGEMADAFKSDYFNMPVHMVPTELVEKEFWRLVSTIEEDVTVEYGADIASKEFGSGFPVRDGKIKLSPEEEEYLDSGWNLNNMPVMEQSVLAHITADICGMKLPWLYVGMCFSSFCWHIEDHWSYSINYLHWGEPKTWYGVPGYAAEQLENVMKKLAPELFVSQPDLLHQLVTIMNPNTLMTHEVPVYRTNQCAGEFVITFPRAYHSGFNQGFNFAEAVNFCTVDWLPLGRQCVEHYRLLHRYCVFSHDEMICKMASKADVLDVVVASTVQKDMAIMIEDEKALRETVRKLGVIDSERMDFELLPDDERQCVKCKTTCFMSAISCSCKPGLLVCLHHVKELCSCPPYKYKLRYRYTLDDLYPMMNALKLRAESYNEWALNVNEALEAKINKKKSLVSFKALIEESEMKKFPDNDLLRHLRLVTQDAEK
Outline: as §1

KDM6A (UTX) = KDM6A (UTX) (Homo sapiens, UniProt O15550); experiment: Histone lysine demethylase AlphaLISA assay, KDM6A; details: read-out: KDM6A HDME Inhibition IC50
Sequence of KDM6A (UTX) (O15550 919-1401): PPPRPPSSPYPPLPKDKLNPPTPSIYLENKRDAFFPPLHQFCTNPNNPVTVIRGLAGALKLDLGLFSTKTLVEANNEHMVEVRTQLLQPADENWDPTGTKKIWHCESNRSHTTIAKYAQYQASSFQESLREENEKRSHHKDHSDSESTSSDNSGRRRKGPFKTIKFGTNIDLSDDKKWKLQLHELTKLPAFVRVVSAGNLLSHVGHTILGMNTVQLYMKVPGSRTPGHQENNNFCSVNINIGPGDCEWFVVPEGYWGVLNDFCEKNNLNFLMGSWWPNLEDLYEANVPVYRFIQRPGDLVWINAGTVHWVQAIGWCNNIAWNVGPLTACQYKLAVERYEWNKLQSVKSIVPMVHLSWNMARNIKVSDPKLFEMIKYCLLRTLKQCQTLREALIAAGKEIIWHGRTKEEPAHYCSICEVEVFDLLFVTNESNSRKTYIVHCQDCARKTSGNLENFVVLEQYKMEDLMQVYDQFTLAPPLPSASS
Outline: as §1

KDM6B (JMJD3) = target: T4, KDM6B (JMJD3) (Homo sapiens, UniProt O15054); experiment: Histone lysine demethylase AlphaLISA assay, KDM6B; details: read-out: KDM6B HDME Inhibition IC50
T4 construct: 1043-end; purchased BPS; host or cells: Bac (baculovirus system)
T4 sequence (O15054 1043-1682 isoform O15054-1 limits assumed): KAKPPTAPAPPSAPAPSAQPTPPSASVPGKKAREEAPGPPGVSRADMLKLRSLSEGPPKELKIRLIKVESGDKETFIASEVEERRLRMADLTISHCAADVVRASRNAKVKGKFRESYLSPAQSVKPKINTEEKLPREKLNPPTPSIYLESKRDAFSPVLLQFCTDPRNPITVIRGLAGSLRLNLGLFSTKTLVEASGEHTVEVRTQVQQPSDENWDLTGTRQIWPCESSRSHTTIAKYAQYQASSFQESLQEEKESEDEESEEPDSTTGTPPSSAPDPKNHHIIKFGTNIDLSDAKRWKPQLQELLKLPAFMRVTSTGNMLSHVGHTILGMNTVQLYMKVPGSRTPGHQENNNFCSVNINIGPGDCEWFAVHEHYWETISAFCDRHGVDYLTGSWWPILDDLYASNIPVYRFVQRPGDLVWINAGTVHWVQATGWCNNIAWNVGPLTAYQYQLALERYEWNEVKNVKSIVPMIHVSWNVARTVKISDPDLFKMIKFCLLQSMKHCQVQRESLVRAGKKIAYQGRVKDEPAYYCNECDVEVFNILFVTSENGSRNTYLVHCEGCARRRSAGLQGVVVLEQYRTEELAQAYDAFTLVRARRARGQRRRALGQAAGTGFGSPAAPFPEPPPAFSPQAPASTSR
Method: as §2
as §3, with “read. […]” for “read.”
BK27M3: Biotin-ATKAAR(Kme3)SAPATGGVKKPHRY-NH2? (Caslo, Denmark) […]
as §4

KDM5C (JARID1C) = target: T5, KDM5C (JARID1C) (Homo sapiens, UniProt P41229); experiment: Histone lysine demethylase AlphaLISA assay, KDM5C; details: read-out: KDM5C HDME Inhibition IC50
T5 construct: 2-1560; purchased BPS; host or cells: Bac (baculovirus system)
T5 sequence (P41229 2-1560): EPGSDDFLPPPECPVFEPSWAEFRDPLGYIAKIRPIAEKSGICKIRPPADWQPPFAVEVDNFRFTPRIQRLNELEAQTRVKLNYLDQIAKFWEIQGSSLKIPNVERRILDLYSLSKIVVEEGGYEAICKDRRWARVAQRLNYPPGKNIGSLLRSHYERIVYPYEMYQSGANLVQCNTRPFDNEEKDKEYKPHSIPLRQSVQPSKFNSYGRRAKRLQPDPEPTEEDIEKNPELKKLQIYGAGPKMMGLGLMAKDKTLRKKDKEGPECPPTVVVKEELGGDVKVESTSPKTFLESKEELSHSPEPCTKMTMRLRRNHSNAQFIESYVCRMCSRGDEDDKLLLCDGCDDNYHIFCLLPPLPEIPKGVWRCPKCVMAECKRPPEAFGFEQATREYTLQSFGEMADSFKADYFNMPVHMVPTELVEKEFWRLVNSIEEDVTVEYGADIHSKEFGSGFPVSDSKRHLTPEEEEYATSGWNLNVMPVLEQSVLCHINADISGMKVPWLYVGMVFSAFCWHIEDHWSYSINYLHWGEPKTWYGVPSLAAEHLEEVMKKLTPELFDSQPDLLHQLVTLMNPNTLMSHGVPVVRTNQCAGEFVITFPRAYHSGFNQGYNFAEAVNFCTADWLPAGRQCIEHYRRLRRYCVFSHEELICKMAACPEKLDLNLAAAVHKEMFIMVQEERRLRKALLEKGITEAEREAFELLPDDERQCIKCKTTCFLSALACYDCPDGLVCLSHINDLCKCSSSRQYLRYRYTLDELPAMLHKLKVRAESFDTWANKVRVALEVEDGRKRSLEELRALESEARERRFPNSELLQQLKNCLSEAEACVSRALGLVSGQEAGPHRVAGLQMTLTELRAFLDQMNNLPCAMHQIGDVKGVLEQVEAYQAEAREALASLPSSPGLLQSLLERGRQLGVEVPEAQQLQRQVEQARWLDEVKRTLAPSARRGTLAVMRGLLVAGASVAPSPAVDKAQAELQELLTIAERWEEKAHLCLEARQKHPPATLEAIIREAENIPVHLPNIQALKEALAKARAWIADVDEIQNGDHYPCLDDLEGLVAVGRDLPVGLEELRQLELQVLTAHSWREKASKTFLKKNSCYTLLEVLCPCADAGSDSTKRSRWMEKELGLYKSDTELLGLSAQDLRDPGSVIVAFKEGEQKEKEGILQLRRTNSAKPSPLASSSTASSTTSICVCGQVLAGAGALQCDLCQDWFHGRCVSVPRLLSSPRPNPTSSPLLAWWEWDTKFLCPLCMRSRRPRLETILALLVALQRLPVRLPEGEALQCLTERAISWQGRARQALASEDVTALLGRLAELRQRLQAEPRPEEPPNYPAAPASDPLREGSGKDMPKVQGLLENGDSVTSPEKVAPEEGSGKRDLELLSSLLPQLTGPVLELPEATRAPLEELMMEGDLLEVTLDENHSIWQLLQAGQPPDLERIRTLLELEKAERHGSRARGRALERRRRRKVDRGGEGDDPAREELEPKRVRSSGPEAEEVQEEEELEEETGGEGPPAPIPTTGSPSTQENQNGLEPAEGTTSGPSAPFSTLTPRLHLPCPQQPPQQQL
Method: as §2
as §3, with “read. […]” for “read.”
H3K4M3B: H-ART(Kme3)QTARKSTGGKAPRKQLA-NH-Biotin (Caslo, Denmark) […]
as §4

Row | IC50 (KDM2B (FBXL10)) | IC50 (KDM4A (JMJD2A)) | IC50 (KDM5B (PLU-1)) | IC50 (KDM6A (UTX)) | IC50 (KDM6B (JMJD3)) | IC50 (KDM5C (JARID1C)) | Structure (SMILES)
1 | > 2.5 µM | > 2.5 µM | > 2.5 µM | > 2.5 µM | > 2.5 µM |  | CCN(CC)CCCCNCc1cc(CN)ccn1 [Compound 5, [2-({[4-(diethylamino)butyl]-amino}methyl)pyridin-4-yl]methanamine]
2 | > 2.5 µM | > 2.5 µM | 0.25 to 2.5 µM | > 2.5 µM | > 2.5 µM |  | NCc1ccnc(CNCCCCN2CCC2)c1 [Compound 7, [2-({[4-(azetidin-1-yl)butyl]amino}methyl)-pyridin-4-yl]-methanamine]
3 | > 2.5 µM | > 2.5 µM | > 2.5 µM | > 2.5 µM | > 2.5 µM |  | CN(C)CCCCNCc1cc(CNC2CC2)ccn1 [Compound 10, N-{[2-({[4-(dimethylamino)butyl]-amino}methyl)pyridin-4-yl]methyl}-cyclopropanamine]
4 | > 2.5 µM | > 2.5 µM | 0.25 to 2.5 µM | > 2.5 µM | > 2.5 µM |  | CC1CCCCN1CCCNCc1cc(CNC2CC2)ccn1 (stereo not drawn) [Compound 11, N-{[2-({[3-(2-methylpiperidin-1-yl)propyl]amino}methyl)-pyridin-4-yl]methyl}-cyclopropanamine]
5 | > 2.5 µM | < 0.25 µM | < 0.25 µM | > 2.5 µM | > 2.5 µM |  | CN(CCCNCc1cc(/C=N/C2CC2)ccn1)Cc1ccccc1 [Compound 41, N-({2-[({3-[benzyl(methyl)amino]-propyl}amino)methyl]-pyridin-4-yl}methylidene)-cyclopropanamine]
6 | > 2.5 µM |  | < 0.25 µM | > 2.5 µM |  |  | CCN(CCN(C)C)C(=O)CNCc1cc(C2OCC(Cc3ccccc3)CN2C(=O)C(F)(F)F)ccn1 (stereo not drawn) [Compound 90, 2-[({4-[5-benzyl-3-(trifluoroacetyl)-1,3-oxazinan-2-yl]pyridin-2-yl}methyl)amino]-N-[2-(dimethylamino)-ethyl]-N-ethylacetamide]
7 | > 2.5 µM |  | < 0.25 µM | > 2.5 µM |  |  | CCN(CCN(C)C)C(=O)CNCc1cc(C2OCC3(CC3)CN2C(=O)C(F)(F)F)ccn1 (stereo not drawn) [Compound 91, N-[2--(dimethylamino)-ethyl]-N-ethyl-2-[({4-[7-(trifluoroacetyl)-5-oxa-7-azaspiro[2.5]-octan-6-yl]pyridin-2-yl}methyl)amino]-acetamide]
8 | > 2.5 µM |  | 0.25 to 2.5 µM | > 2.5 µM |  |  | CN(Cc1ccccc1F)C(=O)CNCc1cc(/C=N/CCO)ccn1 [Compound 92, N-[(2-fluorophenyl)methyl]-2-[({4-[[(2-hydroxyethyl)imino]-methyl]pyridin-2-yl}methyl)amino]-N-methylacetamide]
9 | > 2.5 µM |  | > 2.5 µM | > 2.5 µM |  |  | OCC/N=C/c1ccnc(CNCCc2ccccc2OCc2ccccc2)c1 [Compound 93, 2-[({2-[({2-[2-(benzyloxy)phenyl]-ethyl}amino)methyl]-pyridin-4-yl}methylidene)-amino]ethan-1-ol]
10 | 0.25 to 2.5 µM |  | < 0.25 µM | > 2.5 µM |  |  | CCN(CCC#N)C(=O)CNCc1cc(/C=N/CCO)ccn1 [Compound 94, N-(2-cyanoethyl)-N-ethyl-2-[({4-[[(2-hydroxyethyl)imino]-methyl]pyridin-2-yl}methyl)amino]-acetamide]
11 | > 2.5 µM |  | > 2.5 µM | > 2.5 µM |  |  | CC(C)C[C@H](NCc1cc(/C=N/CCO)ccn1)C(=O)N1CCCCC1 [Compound 95, (2S)-2-[({4-[[(2-hydroxyethyl)imino]-methyl]pyridin-2-yl}methyl)amino]-4-methyl-1-(piperidin-1-yl)pentan-1-one]
12 | > 2.5 µM | > 2.5 µM | 0.25 to 2.5 µM | > 2.5 µM | > 2.5 µM |  | CN(C)CC1CCC(CNCc2cc(C=O)ccn2)CC1 (stereo not drawn) [Compound 97, 2-{[({4-[(dimethylamino)-methyl]cyclohexyl}-methyl)amino]-methyl}pyridine-4-carbaldehyde]
13 | > 2.5 µM |  | < 0.25 µM | > 2.5 µM | > 2.5 µM | < 0.25 µM | CN1CCC(CNCc2cc(C=O)ccn2)CC1 [Compound 100, 2-({[(1-methyl-piperidin-4-yl)methyl]amino}-methyl)pyridine-4-carbaldehyde]
14 | > 2.5 µM |  | < 0.25 µM | > 2.5 µM | > 2.5 µM | < 0.25 µM | CCN1CCCC1CNC(=O)CNCc1cc(C=O)ccn1 (stereo not drawn) [Compound 104, N-[(1-ethylpyrrolidin-2-yl)methyl]-2-{[(4-formylpyridin-2-yl)methyl]amino}-acetamide]
15 | > 2.5 µM | > 2.5 µM | 0.25 to 2.5 µM | > 2.5 µM | > 2.5 µM |  | CCN(CC)C(=O)CNCc1cc(C=O)ccn1 [Compound 105, N,N-diethyl-2-{[(4-formylpyridin-2-yl)methyl]amino}-acetamide]
16 | > 2.5 µM |  | < 0.25 µM | > 2.5 µM |  |  | CCN(CC(C)(C)N(C)C)C(=O)CNCc1cc(C=O)ccn1 [Compound 118, N-[2-(dimethylamino)-2-methylpropyl]-N-ethyl-2-{[(4-formylpyridin-2-yl)methyl]amino}-acetamide]
17 | > 2.5 µM |  | > 2.5 µM | > 2.5 µM |  |  | CN(CC(=O)N1CCCCC1)Cc1cc(C=O)ccn1 [Compound 120, 2-({methyl[2-oxo-2-(piperidin-1-yl)ethyl]amino}-methyl)pyridine-4-carbaldehyde]

Source: US9650339B2, “Inhibitors of histone demethylases” (Gilead Sciences, Inc., priority 2013, dated 2017)
